Several values for one entry are separate records, joined by “and”; a condition that tells them apart may be missing. Equal values may be shown once. Read-outs that look alike come from different tables or passages of the source.
Key:
[1] = Plasma PK and tissue distribution after oral dosing of INTERMEDIATE C4 (3 mg/kg); type: in vivo; conditions: PO 3 mg/kg INTERMEDIATE C4, male Wistar Han rat
Protocol: (§1) Tissue Distribution of drug intermediate C4 from oral dosing of C4 and of intermediate C4 from oral dosing of example 7 in rats
(§2) • Wistar Han rat, 185-197 g, male, N=8, purchased from Beijing Vital River Co. LTD. Qualification No.: SCXK(J) 2016-0011 11400700240027. Fasted overnight and fed 4 hr post dose. PO: 3 mg/kg (10 mL/kg) via oral gavage(N=8). Sampling at 1, 4, 8 and 24 hr , 4 time points, terminal bleeding for plasma, liver, lymph nodes and spleen collected at each time point.

[2] = Plasma PK and tissue distribution after oral dosing of prodrug EXAMPLE 7 (5 mg/kg); type: in vivo; conditions: PO 5 mg/kg EXAMPLE 7 (prodrug), analyte as labelled
Protocol: as §1
as §2, with “5” for “3”, “point” for “point.”

[3] = male, Wistar Han, rat, spleen, po, 3 mg/kg, read-out: spleen Concentration Mean
[4] = male, Wistar Han, rat, spleen, po, 3 mg/kg, read-out: spleen Concentration individual
[5] = male, Wistar Han, rat, spleen/plasma, po, 3 mg/kg, read-out: Spleen to plasma ratio Mean
[6] = male, Wistar Han, rat, spleen/plasma, po, 3 mg/kg, read-out: Spleen to plasma ratio individual
[7] = male Wistar Han rat, 1 hr, 5 mg/kg
[8] = male Wistar Han rat, 4 hr, 5 mg/kg

A concentration at 8 h ([1]; male, Wistar Han, rat, plasma, po, 3 mg/kg, read-out: plasma Concentration Mean) of 28.2 ng/mL, a concentration at 8 h ([1]; male, Wistar Han, rat, plasma, po, 3 mg/kg, read-out: plasma Concentration individual) of 33.7 ng/mL and a concentration at 1 h [1, 3] of 63.9 ng/g were found for `CC(C)CN(c1ccc([C@H](C)CC(=O)O)cc1Nc1cnc(Cl)cn1)C1CCOCC1` [intermediate C4] in this work. It also gave a concentration at 1 h [1, 4] of 65.3 ng/g, a concentration at 4 h [1, 3] of 19.9 ng/g and a concentration at 4 h [1, 4] of 19.3 ng/g. It also gave a Kp at 1 h [1, 5] of 0.191, a Kp at 1 h [1, 6] of 0.186 and a Kp at 4 h [1, 5] of 0.308. It also gave a Kp at 4 h [1, 6] of 0.283, a Kp ([1]; male, Wistar Han, rat, spleen/plasma, po, 3 mg/kg, read-out: AUCspleen/AUCplasma) of 0.166 and an AUC(0-inf) ([1]; plasma, mean) of 1030 ng·h/mL. For the same compound, the Cmax ([1]; plasma, mean) was 334 ng/mL, the Tmax ([1]; plasma, mean) was 1 h and the AUC(0-t) ([1]; plasma, mean, read-out: AUClast) was 951 ng·h/mL. The half-life ([1]; plasma, mean, read-out: Terminal t1/2 (converted)) was 2.01 h, the AUC(0-t) ([1]; spleen, read-out: AUClast (spleen)) was 157 ng·h/mL and the “Lymph node to plasma ratio individual” value [2, 7] was 2.99. For the same compound, the “Spleen to plasma ratio individual” value [2, 7] was 0.677, the “lymph node Concentration individual” value [2, 7] was 685 ng/g and the “plasma Concentration individual” value [2, 7] was 229 ng/mL. For the same compound, the “spleen Concentration individual” value [2, 7] was 155 ng/g, the “Lymph node to plasma ratio individual” value [2, 8] was 2.15 and the “Spleen to plasma ratio individual” value [2, 8] was 0.260. The “lymph node Concentration individual” value [2, 8] was 63.1 ng/g, the “spleen Concentration individual” value [2, 8] was 23.1 ng/g and 7.65 ng/g and the “spleen Concentration Mean” value ([2]; male Wistar Han rat, 8 hr) was “BQL”. For the same compound, the “spleen Concentration individual” value ([2]; male Wistar Han rat, 8 hr) was “BQL”, the “lymph node Concentration individual” value ([2]; male Wistar Han rat, 8 hr, 5 mg/kg) was 16.3 ng/g and 6.17 ng/g and the “liver Concentration Mean” value ([2]; male Wistar Han rat, 24 hr) was “BQL”. For the same compound, the “liver Concentration individual” value ([2]; male Wistar Han rat, 24 hr) was “BQL”, the “lymph node Concentration Mean” value ([2]; male Wistar Han rat, 24 hr) was “BQL” and the “lymph node Concentration individual” value ([2]; male Wistar Han rat, 24 hr) was “BQL”. For the same compound, the “plasma Concentration Mean” value ([2]; male Wistar Han rat, 24 hr) was “BQL”, the “plasma Concentration individual” value ([2]; male Wistar Han rat, 24 hr) was “BQL” and the “spleen Concentration Mean” value ([2]; male Wistar Han rat, 24 hr) was “BQL”. For the same compound, the “spleen Concentration individual” value ([2]; male Wistar Han rat, 24 hr) was “BQL”, the AUC(0-t) ([2]; lymph node, male Wistar Han rat, read-out: AUClast (lymph node)) was 1890 ng·h/mL and the concentration at 1 h ([2]; male, Wistar Han, rat, lymph node, po, 5 mg/kg, 1 hr, read-out: lymph node Concentration Mean) was 807 ng/g. It also gave a concentration at 1 h ([2]; male, Wistar Han, rat, lymph node, po, 5 mg/kg, 1 hr, read-out: lymph node Concentration individual) of 928 ng/g, a concentration at 4 h ([2]; male, Wistar Han, rat, lymph node, po, 5 mg/kg, 4 hr, read-out: lymph node Concentration Mean) of 73.8 ng/g and a concentration at 4 h ([2]; male, Wistar Han, rat, lymph node, po, 5 mg/kg, 4 hr, read-out: lymph node Concentration individual) of 84.4 ng/g. It also gave a concentration at 8 h ([2]; male, Wistar Han, rat, lymph node, po, 5 mg/kg, 8 hr) of 11.2 ng/g, a Kp at 1 h ([2]; male, Wistar Han, rat, lymph node/plasma, po, 5 mg/kg, 1 hr, read-out: Lymph node to plasma ratio Mean) of 3.86 and a Kp at 1 h ([2]; male, Wistar Han, rat, lymph node/plasma, po, 5 mg/kg, 1 hr, read-out: Lymph node to plasma ratio individual) of 4.73. It also gave a Kp at 4 h ([2]; male, Wistar Han, rat, lymph node/plasma, po, 5 mg/kg, 4 hr, read-out: Lymph node to plasma ratio Mean) of 1.66, a Kp at 4 h ([2]; male, Wistar Han, rat, lymph node/plasma, po, 5 mg/kg, 4 hr, read-out: Lymph node to plasma ratio individual) of 1.16 and a Kp at 8 h ([2]; male, Wistar Han, rat, lymph node/plasma, po, 5 mg/kg, 8 hr, read-out: Lymph node to plasma ratio Mean) of 0.994. The Kp at 8 h ([2]; male, Wistar Han, rat, lymph node/plasma, po, 5 mg/kg, 8 hr, read-out: Lymph node to plasma ratio individual) was 0.994, the Kp ([2]; male, Wistar Han, rat, lymph node/plasma, po, 5 mg/kg, read-out: AUClimphnode/AUCplasma) was 2.99 and the concentration at 1 h ([2]; male, Wistar Han, rat, plasma, po, 5 mg/kg, 1 hr, read-out: plasma Concentration Mean) was 213 ng/mL. It also gave a concentration at 1 h ([2]; male, Wistar Han, rat, plasma, po, 5 mg/kg, 1 hr, read-out: plasma Concentration individual) of 196 ng/mL, a concentration at 1 h ([2]; male, Wistar Han, rat, spleen, po, 5 mg/kg, 1 hr, read-out: spleen Concentration Mean) of 165 ng/g and a concentration at 1 h ([2]; male, Wistar Han, rat, spleen, po, 5 mg/kg, 1 hr, read-out: spleen Concentration individual) of 175 ng/g. It also gave a concentration at 4 h ([2]; male, Wistar Han, rat, spleen, po, 5 mg/kg, 4 hr, read-out: spleen Concentration Mean) of 15.4 ng/g, a Kp at 1 h ([2]; male, Wistar Han, rat, spleen/plasma, po, 5 mg/kg, 1 hr, read-out: Spleen to plasma ratio Mean) of 0.785 and a Kp at 1 h ([2]; male, Wistar Han, rat, spleen/plasma, po, 5 mg/kg, 1 hr, read-out: Spleen to plasma ratio individual) of 0.893. It also gave a Kp at 4 h ([2]; male, Wistar Han, rat, spleen/plasma, po, 5 mg/kg, 4 hr, read-out: Spleen to plasma ratio Mean) of 0.289, a Kp at 4 h ([2]; male, Wistar Han, rat, spleen/plasma, po, 5 mg/kg, 4 hr, read-out: Spleen to plasma ratio individual) of 0.319 and a Kp ([2]; male, Wistar Han, rat, spleen/plasma, po, 5 mg/kg, read-out: AUCspleen/AUCplasma) of 0.558. For the same compound, the AUC(0-t) ([2]; spleen, male Wistar Han rat, read-out: AUClast (spleen)) was 353 ng·h/mL.
